{"source": "patent US8247571B2", "about": "“Pyridinium and thiazolium conjugates including polyethylene glycols and methods of using the same” (Mycosol, Inc., priority 2005, dated 2012)", "origin": "cited, not measured here", "test_system": "roundworms, threadworms, and whipworms", "conditions": "reported; U.S. Pat. Nos. 3,075,975 and 3,085,935", "data": [{"smiles": "CC[n+]1c(/C=C/c2ccc(N3CCCC3)cc2)cccc1/C=C/c1ccc(N2CCCC2)cc1.[I-]", "note": "[Stilbazium iodide]", "values": [{"measurement": "anthelmintic effectiveness", "value": "effective"}]}]}
